Data set [1] is described as follows: Cell viability MTS assay, conditions of the RSV assay. The format is cell-based. As to conditions: human, Hep-2 cells. The protocol:
(§1) Cell viability was measured using the MTS [3- (4,5-dimethylthiazol-2-yl)-5- (3 carboxy methoxy phenyl)-2-(4-sulfophenyl)-2H-tetrazolium] assay. Cell cultures were seeded in 96-well plates and were incubated with different concentrations of compounds in duplicate under the same experimental conditions described for the antiviral assays, (i.e. if the incubation time of the compound on cells was carried for 2 hours and then the evaluation of the antiviral activity was done 72h later, the same timing was used for the cytotoxicity assays, in order to exclude any toxicity effect in the antiviral evaluation). Cell viability was determined using the CellTiter 96 Proliferation Assay Kit (Promega, Madison, WI, USA) according to the manufacturer's instructions. Absorbances were measured using a Microplate Reader (Model 680, BIORAD) at 490 nm. The effect on cell viability at different concentrations of the compound was expressed as a percentage, by comparing absorbances of treated cells with those of cells incubated with culture medium and equal volumes of vehicle. The 50% cytotoxic concentrations (CC50) and 95% confidence intervals (CIs) were determined using Prism software (Graph-Pad Software, San Diego, CA). For compound 9d a continuous incubation of 1, 2, 3 and 4 days on Vero cells was carried in order to evaluate the toxicity after long exposure the results are shown in S1 Fig and Fig 3. […]
A general note: Tetrazolium assays rely on reduction of a dye to a coloured formazan, in cell work by metabolically active cells.

For data set [2], the system named is HSV-2. The experiment in a line: Binding assay (qPCR, immunostaining, IF). The format is cell-based. As to conditions: 10 μM, HSV-2 MOI 10, 2 h on Vero cells at 4°C. The protocol: (§2) Since the observed irreversible effect can be exerted at different stages of viral infection, we investigated more in detail if compound 9d produced a physical disruption of the virus, thus preventing its attachment to the cells or a successive irreversible modification. We performed entry and binding assays, evaluating the amount of bound virus through immunostaining or qPCR. […] On the contrary, when entry assays were performed, it was possible to observe a reduction in the amount of virus associated to the cells (Fig 7D). […]
(§3) Cells were plated on coverslips and the following day the binding or entry protocol described above was applied. […] Rhodamine conjugated anti-rabbit (Santa Cruz) was then added on cells for 1 h at 37°C following 3 washes coverslips were mounted on microscope glasses and observed with Zeiss LSM510 fluorescence microscope (Zeiss, Oberkochen, Germany) and images were acquired.
Cells subjected to binding assays were then lysed and subjected to total DNA/RNA extraction and subsequently subjected to qPCR using as primers 5’- […] -3’ and 5’-[…] -3’ and as probe 5’-FAM […] -TAMRA for 40 cycles at 94°C for 15” followed by 60°C for 60”. The results were normalized according to values of rnasep and the % of bound virus were measured comparing the Δct of treated wells to wells treated with equal volume of solvent.
A general note: In qPCR the cycle at which signal appears reflects the starting amount.

Data set [3] concerns HSV-2. The experiment in a line: Entry assay. The format is cell-based. As to conditions: 10 μM, HSV-2 MOI 10. As for the experimental part:
as §2, with “7D). With this assay, the signal from the virus could be related to virus in the cytoplasm or blocked in the endosomes, since the treatment with acidic glycine is affecting only the virus at the surface of the cell.” for “7D).”
as §3

The nature of data set [4]: Cell viability MTS assay, conditions of the IAV assay. The format is cell-based, Canine. As to conditions: dog, MDCK cells. As for the experimental part:
Cell viability was measured using the MTS [3- (4,5-dimethylthiazol-2-yl)-5- (3 carboxy methoxy phenyl)-2-(4-sulfophenyl)-2H-tetrazolium] assay. Cell cultures were seeded in 96-well plates and were incubated with different concentrations of compounds in duplicate under the same experimental conditions described for the antiviral assays, (i.e. if the incubation time of the compound on cells was carried for 2 hours and then the evaluation of the antiviral activity was done 72h later, the same timing was used for the cytotoxicity assays, in order to exclude any toxicity effect in the antiviral evaluation). Cell viability was determined using the CellTiter 96 Proliferation Assay Kit (Promega, Madison, WI, USA) according to the manufacturer's instructions. Absorbances were measured using a Microplate Reader (Model 680, BIORAD) at 490 nm. The effect on cell viability at different concentrations of the compound was expressed as a percentage, by comparing absorbances of treated cells with those of cells incubated with culture medium and equal volumes of vehicle. The 50% cytotoxic concentrations (CC50) and 95% confidence intervals (CIs) were determined using Prism software (Graph-Pad Software, San Diego, CA). For compound 9d a continuous incubation of 1, 2, 3 and 4 days on Vero cells was carried in order to evaluate the toxicity after long exposure the results are shown in S1 Fig and Fig 3.

The nature of data set [5]: Cell viability MTS assay, conditions of the HPV-16 and Ad5 assays. The format is cell-based. As to conditions: human, HeLa cells; conditions of HPV-16 assay. The protocol:
as §1, with “vehicle.” for “vehicle. The 50% cytotoxic concentrations (CC50) and 95% confidence intervals (CIs) were determined using Prism software (Graph-Pad Software, San Diego, CA). For compound 9d a continuous incubation of 1, 2, 3 and 4 days on Vero cells was carried in order to evaluate the toxicity after long exposure the results are shown in S1 Fig and Fig 3.”
HeLa cells were plated in 96-well plates. […] The GFP-expressing infected cells were observed under an inverted Zeiss LSM510 fluorescence microscope (Zeiss, Oberkochen, Germany) and the percentages of infection were calculated by comparing GFP positive cells in treated and untreated wells.

Data set [6] in a line: In vitro lipoperoxidation test (TBA assay, MDA). As to conditions: DPPC liposomes, 37°C, 30 minutes.
Data set [7] concerns HSV-2. Nature of the data set: Time of addition: pretreatment of cells before HSV-2 infection. The format is cell-based. As to conditions: compound on cells 2 h before infection, then removed. As for the experimental part:
We performed assays aimed at better understanding the mechanism of action. In the pretreatment assay compound 9d was added on cells before the virus in order to determine if the antiviral activity was due to an interaction with the cells. Moreover, an assay was conducted adding virus and compound on cells without the preincubation performed in previous assays.
Fig 4 Time of addition assays. Compound 9d was added on cells 2 h before infection (PRE-TREATMENT CELLS) and subsequently the inocula were removed and cells were infected or compound and virus were added simultaneously on cells (DURING INFECTION) or after 1 h pre-incubation between the virus and the compound (PRE-TREATMENT VIRUS). Cells were fixed and stained 24 h later and plaques were counted.
Pretreatment: cells were pretreated for 2 h at 37°C with increasing concentrations of compounds, the inocula were then removed, cells washed and HSV-2 was added on cells for 2 h at 37°C. Subsequently the same protocol described above was followed.

Data set [8] in a line: in vitro. As to conditions: African green monkey.
A short description of data set [9]: Cell viability MTS assay on Vero cells. As to conditions: African green monkey.

Turning to `CC(C)c1ccc(CCN2C(=O)/C(=C/c3ccc(-c4ccc(C(=O)O)c(O)c4)o3)SC2=S)cc1` [Compound 9d, (Z)-2-hydroxy-4-(5-((3-(4-isopropylphenethyl)-4-oxo-2-thioxothiazolidin-5-ylidene)methyl)furan-2-yl)benzoic acid], the CC50 at 3 h in data set [1] was determined as 17 µM. In data set [2], the viral binding capability result is listed as “not altering viral binding capability”. Also, in [3], the “amount of virus associated to the cells” value is “reduction”. Moreover, in [4], the CC50 at 1 h is 136 µM. Moreover, the CC50 at 72 h in [5] is 94.2 µM. In addition, the “lipid peroxidation of linoleic acid (MDA)” value in data set [6] is “remarkable lipid peroxidation”. The “antiviral activity in pre-treatment assay” value in data set [7] is “not active”. In addition, the CC50 came out at 24.8 µM in [8]; 2.09 µM in data set [9] (CC50, Vero cells, MTS); 2.09 µM in data set [9] (CC50, conditions of HSV-1 assay); 2.09 µM in data set [9] (CC50, conditions of HSV-2 acyclovir resistant assay); 8.85 µM in data set [9] (CC50, conditions of ZIKAV assay). For the same molecule, in data set [9] (CC50, Vero cells, after 96h exposure), the CC50 at 96 h came to 2.09 µM.
